Assay results as given in US20220087996A1, “Histone acetylase p300 inhibitor and use thereof” (HINOVA PHARMACEUTICALS INC., priority 2018, published 2022).
Like-named read-outs stand apart in the source and are kept apart here.

System: CWR22RV1 cells
Experiment: Inhibition of proliferation of CWR22RV1 cells (CCK-8)
Type: cell-based, human
Settings: Homo sapiens, CWR22Rv1, 144 h, 6 days culture
Protocol: 1) CWR22RV1 cells were subcultured in cell culture medium, and the cells in good growth condition were seeded in a 96-well plate, 80 μL for each well, and the cell number in each well was 1500. The plate was incubated overnight in a 37° C., 5% CO2 cell incubator. 2) The drug was prepared as 30 mM stock solution with dimethyl sulfoxide (DMSO). Prior to use, the stock solution was diluted 3 times with DMSO, and then further diluted as 3-fold gradient to obtain 9 concentration gradients. Then, each concentration of compound was diluted 200 times with the culture solution (ensuring that the DMSO concentration in the culture system was 0.1%), and two replicate wells were set for each concentration. 20 μL of diluted compound solution was added to the cell culture well (with final concentrations of 10 μM, 3.3 μM. 1.1 μM . . . ), and the plate was gently shaken to mix. In addition, 3 negative control wells containing only cells and 3 blank control wells containing only culture medium were included (6 wells were each added 20 μL DMSO diluted 200 times with culture medium). 2. Result detection: (1) After culturing for 6 days, 10 μL CCK-8 was added to each well, and the plate was continually cultured in a 37° C., 5% CO2 cell incubator for 2.5 h. (2) The absorbance (OD value) was detected at 450 nm using a multifunctional microplate reader. (3) The data were analyzed by Dose-response-inhibition equation in the software GraphPad Prism6, and the IC50 value was obtained.

[1] = read-out: IC50 against CWR22RV1 cells
[2] = read-out: IC50 against CWR22RV1 cells (text)

| Compound | IC50 [1] [nM] | IC50 [2] [nM] |
| --- | --- | --- |
| CNC(=O)Nc1ccc2c(c1)CC[C@@]21OC(=O)N(CC(=O)N2CCCC2c2cccc[n+]2[O-])C1=O (stereo partly drawn) [Example 343, 2-(1-(2-((R)-5-(3-methylureido)-2′,4′-dioxo-2,3-dihydrospiro[indene-1,5′-oxazole]-3′-yl)acetyl)pyrrolidin-2-yl)pyridin-1-oxide] | > 2000 |  |
| CNC(=O)Nc1ccc2c(c1)CC[C@@]21OC(=O)N(CC(=O)N2CCCC2c2ccc(F)cc2C)C1=O (stereo partly drawn) [Example 347, 1-((1R)-3′-(2-(2-(4-fluoro-2-methylphenyl)pyrrolidin-1-yl)-2-oxoethyl)-2′,4′-dioxo-2,3-dihydrospiro[indene-1,5′-oxazolidine]-5-yl)-3-methylurea] | 500 to 2000 |  |
| CNC(=O)Nc1ccc2c(c1)CC[C@@]21OC(=O)N(CC(=O)N2C(C)CCC2c2ccc(F)cc2)C1=O (stereo partly drawn) [Example 348, 1-((1R)-3′-(2-(2-(4-fluorophenyl)-5-methylpyrrolidin-1-yl)-2-oxoethyl)-2′,4′-dioxo-2,3-dihydrospiro[indene-1,5′-oxazolidine]-5-yl)-3-methylurea] | ≤ 500 | ≤ 500 |
| CNC(=O)Nc1ccc2c(c1)CC[C@@]21OC(=O)N(CC(=O)N2C(C)CCC2(c2ccc(OC)cc2)c2ccc(OC)cc2)C1=O (stereo partly drawn) [Example 349, 1-((1R)-3′-(2-(2,2-bis(4-methoxyphenyl)-5-methylpyrrolidin-1-yl)-2-oxoethyl)-2′,4′-dioxo-2,3-dihydrospiro[indene-1,5′-oxazolidine]-5-yl)-3-methylurea] | > 2000 |  |
| CNC(=O)Nc1ccc2c(c1)CC[C@@]21OC(=O)N(CC(=O)N2C(C)CCC2c2ccc(Cl)cc2C)C1=O (stereo partly drawn) [Example 351, 1-((1R)-3′-(2-(2-(4-chloro-2-methylphenyl)-5-methylpyrrolidin-1-yl)-2-oxoethyl)-2′,4′-dioxo-2,3-dihydrospiro[indene-1,5′-oxazolidine]-5-yl)-3-methylurea] | ≤ 500 | ≤ 500 |
| CNC(=O)Nc1ccc2c(c1)CC[C@@]21OC(=O)N(CC(=O)N2C(C)CCC2c2ccc(C(F)(F)F)cc2C)C1=O (stereo partly drawn) [Example 352, 1-methyl-3-((1R)-3′-(2-(2-methyl-5-(2-methyl-4-(trifluoromethyl)phenyl)pyrrolidin-1-yl)-2-oxoethyl)-2′,4′-dioxo-2,3-dihydrospiro[indene-1,5′-oxazolidine]-5-yl)urea] | > 2000 |  |
| CNC(=O)Nc1ccc2c(c1)CC[C@@]21OC(=O)N(CC(=O)N2C(C)CCC2c2ccc(F)cc2C)C1=O (stereo partly drawn) [Example 353, 1-((1R)-3′-(2-(2-(4-fluoro-2-methylphenyl)-5-methylpyrrolidin-1-yl)-2-oxoethyl)-2′,4′-dioxo-2,3-dihydrospiro[indene-1,5′-oxazolidine]-5-yl)-3-methylurea] | ≤ 500 | ≤ 500 |
| CNC(=O)Nc1ccc2c(c1)CC[C@@]21OC(=O)N(CC(=O)N2C(C)CCC2c2ccc(F)cc2Br)C1=O (stereo partly drawn) [Example 354, 1-((1R)-3′-(2-(2-(2-bromo-4-fluorophenyl)-5-methylpyrrolidin-1-yl)-2-oxoethyl)-2′,4′-dioxo-2,3-dihydrospiro[indene-1,5′-oxazolidine]-5-yl)-3-methylurea] | 500 to 2000 |  |
| CNC(=O)Nc1ccc2c(c1)CCC21OC(=O)N(CC(=O)N2CCCCC23CCN(C(C)=O)CC3)C1=O (stereo not shown) [Example 355, 1-(3′-(2-(9-acetyl-1,9--1-yl)-2-oxoethyl)-2′,4′-dioxo-2,3-dihydrospiro[indene-1,5′-oxazolidine]-5-yl)-3-methylurea] | > 2000 |  |
| CNC(=O)Nc1ccc2c(c1)CC[C@@]21OC(=O)N(CC(=O)N2C(C)CCC2c2ccc(F)cc2C(F)(F)F)C1=O (stereo partly drawn) [Example 356, 1-((1R)-3′-(2-(2-(4-fluoro-2-(trifluoromethyl)phenyl)-5-methylpyrrolidin-1-yl)-2-oxoethyl)-2′,4′-dioxo-2,3-dihydrospiro[indene-1,5′-oxazolidine]-5-yl)-3-methylurea] | > 2000 |  |
